According to US8481732B2 (Incyte Corporation, priority 2009, dated 2013):

What follows are compounds tested against T1, histamine H4 receptor (Homo sapiens, UniProt Q9H3N8) (assay: H4 Membrane Binding Assay (3H-Histamine displacement)). Settings: membranes of recombinant HEK293SFM cells, 10 nM 3H-Histamine, 1.5 hr at room temperature.
T1 construct: expressed in transfected cells; host or cells: HEK293SFM cells (membrane preparation)
Method in brief: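 Radioligand is [3H]-histamine; 1000× unlabeled ligand sets nonspecific binding. Receptor source: membrane pellets from HEK293SFM cells carrying human H4 or other histamine subtypes (human H1–H3, mouse H4), in 50 mM Tris-HCl pH 7.5. Filtration through PEI-treated GF/B filters, then scintillation counting.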

T1 sequence (Q9H3N8 whole entry): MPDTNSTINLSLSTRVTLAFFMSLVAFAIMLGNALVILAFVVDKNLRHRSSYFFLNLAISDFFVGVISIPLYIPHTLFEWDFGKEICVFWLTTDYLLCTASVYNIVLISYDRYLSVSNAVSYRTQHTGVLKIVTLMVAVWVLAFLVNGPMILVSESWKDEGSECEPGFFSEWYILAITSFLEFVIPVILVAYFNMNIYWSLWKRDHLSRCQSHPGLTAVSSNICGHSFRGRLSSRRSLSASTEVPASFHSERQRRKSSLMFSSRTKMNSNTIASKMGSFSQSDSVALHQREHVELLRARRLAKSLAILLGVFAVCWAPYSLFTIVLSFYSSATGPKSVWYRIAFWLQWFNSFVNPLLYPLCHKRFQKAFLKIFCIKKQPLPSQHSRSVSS

Row | SMILES | IC50 [nM]
1 | CN1CCN(c2cc(-c3ccc4c(c3)CN(C(=O)CC3(C#N)CCCC3)CC4)nc(N)n2)CC1 [Example 122, 1-{2-[7-[2-Amino-6-(4-methylpiperazin-1-yl)pyrimidin-4-yl]-3,4-dihydroisoquinolin-2(1H)-yl]-2-oxoethyl}cyclopentanecarbonitrile] | 22
2 | CC(Cc1ccc(Oc2ccccc2)cc1)NC(=O)c1ccc2c(N3CCN(C)CC3)nc(N)nc2c1 (stereo not shown) [Example 142, 2-Amino-N-[1-methyl-2-(4-phenoxyphenyl)ethyl]-4-(4-methylpiperazin-1-yl)quinazoline-7-carboxamide] | 34
3 | Cc1cnc(C)c(Oc2cccc(CNC(=O)c3ccc4c(N5CCN(C)CC5)nc(N)nc4c3)c2)n1 [Example 187, 2-Amino-N-{3-[(3,6-dimethylpyrazin-2-yl)oxy]benzyl}-4-(4-methylpiperazin-1-yl)quinazoline-7-carboxamide] | 41
4 | CN1CCN(c2nc(N)nc3cc(C(=O)NC(Cc4ccc(-c5ccccc5)cc4)c4nccs4)ccc23)CC1 (stereo not shown) [Example 151, 2-amino-N-[2-biphenyl-4-yl-1-(1,3-thiazol-2-yl)ethyl]-4-(4-methylpiperazin-1-yl)quinazoline-7-carboxamide] | 69
5 | COc1cc(COc2cccc(CNC(=O)c3ccc4c(N5CCN(C)CC5)nc(N)nc4c3)c2)cc(OC)c1 [Example 194, 2-Amino-N-{3-[(3,5-dimethoxybenzyl)oxy]benzyl}-4-(4-methylpiperazin-1-yl)quinazoline-7-carboxamide] | 8.7
6 | CN1CCN(c2nc(N)nc3cc(C(=O)N[C@@H](Cc4ccc(-c5nc(C(F)(F)F)ccc5C#N)cc4)C(=O)N(C)C)ccc23)CC1 [Example 157, 2-Amino-N-[(1S)-1-{4-[3-cyano-6-(trifluoromethyl)pyridin-2-yl]benzyl}-2-(dimethylamino)-2-oxoethyl]-4-(4-methylpiperazin-1-yl)quinazoline-7-carboxamide] | 22
7 | COC(=O)[C@H](Cc1ccc(-c2ccccc2)cc1)NC(=O)c1ccc2c(N3CCN(C)CC3)nc(N)nc2c1 [Example 138, Methyl (2S)-2-({[2-amino-4-(4-methylpiperazin-1-yl)quinazolin-7-yl]carbonyl}amino)-3-biphenyl-4-ylpropanoate] | 23
8 | COC(=O)c1ccc(Oc2cccc(CC(NC(=O)c3ccc4c(N5CCN(C)CC5)nc(N)nc4c3)C(=O)N(C)C)c2)cc1 (stereo not shown) [Example 169, Methyl 4-{3-[2-({[2-amino-4-(4-methylpiperazin-1-yl)quinazolin-7-yl]carbonyl}amino)-3-(dimethylamino)-3-oxopropyl]phenoxy}benzoate] | 23
9 | C[C@@H](NC(=O)c1ccc2c(N3CCN(C)CC3)nc(N)nc2c1)c1ccc2ccccc2c1 [Example 21, (R)-2-Amino-4-(4-methylpiperazin-1-yl)-N-[1-(naphthalen-2-yl)ethyl]quinazoline-7-carboxamide] | 105
10 | CN1CCN(c2nc(N)nc3cc(C(=O)NC(Cc4ccc5c(c4)OC(F)(F)O5)C(=O)N(C)C)ccc23)CC1 (stereo not shown) [Example 145, 2-Amino-N-[1-[(2,2-difluoro-1,3-benzodioxol-5-yl)methyl]-2-(dimethylamino)-2-oxoethyl]-4-(4-methylpiperazin-1-yl)quinazoline-7-carboxamide] | 34
11 | CN1CCN(c2nc(N)nc3cc(C(=O)NC(Cc4cccc(Oc5ccccc5)c4)C(=O)N(C)C)ccc23)CC1 (stereo not shown) [Example 146, 2-Amino-N-[2-(dimethylamino)-2-oxo-1-(3-phenoxybenzyl)ethyl]-4-(4-methylpiperazin-1-yl)quinazoline-7-carboxamide] | 65
12 | CN1CCN(c2nc(N)nc3cc(C(=O)NCc4ccc(Oc5ccccc5)cc4)ccc23)CC1 [Example 34, 2-Amino-4-(4-methylpiperazin-1-yl)-N-(4-phenoxybenzyl)quinazoline-7-carboxamide] | 106
13 | CC(Cc1ccc(OC2CCCC2)cc1)NC(=O)c1ccc2c(N3CCN(C)CC3)nc(N)nc2c1 (stereo not shown) [Example 143, 2-Amino-N-{2-[4-(cyclopentyloxy)phenyl]-1-methylethyl}-4-(4-methylpiperazin-1-yl)quinazoline-7-carboxamide] | 37
14 | COC(=O)N1CCC(OC(=O)N2CCc3ccc(-c4cc(N5CCN(C)CC5)nc(N)n4)cc3C2)CC1 [Example 115, 1-(Methoxycarbonyl)piperidin-4-yl 7-[2-amino-6-(4-methylpiperazin-1-yl)pyrimidin-4-yl]-3,4-dihydroisoquinoline-2(1H)-carboxylate] | 33
15 | CC(Oc1cccc(CNC(=O)c2ccc3c(N4CCN(C)CC4)nc(N)nc3c2)c1)c1cccc(C(F)(F)F)c1 (stereo not shown) [Example 196, 2-Amino-4-(4-methylpiperazin-1-yl)-N-(3-{1-[3-(trifluoromethyl)phenyl]ethoxy}benzyl)quinazoline-7-carboxamide] | 4.4
16 | Cc1cccnc1N1CCC(NC(=O)N2CCc3ccc(-c4cc(N5CCN(C)CC5)nc(N)n4)cc3C2)CC1 [Example 42, 7-[2-Amino-6-(4-methylpiperazin-1-yl)pyrimidin-4-yl]-N-[1-(3-methylpyridin-2-yl)piperidin-4-yl]-3,4-dihydroisoquinoline-2(1H)-carboxamide] | 103

Row | SMILES | IC50 [nM]
17 | Cc1ccc(CNC(=O)c2ccc3c(N4CCN(C)CC4)nc(N)nc3c2)cc1Cl [Example 36, 2-Amino-N-(3-chloro-4-methylbenzyl)-4-(4-methylpiperazin-1-yl)quinazoline-7-carboxamide] | 126
18 | CN1CCN(c2nc(N)nc3cc(C(=O)NCCc4ccccc4)ccc23)CC1 [Example 37, 2-Amino-4-(4-methylpiperazin-1-yl)-N-(2-phenylethyl)quinazoline-7-carboxamide] | 129
19 | CN1CCN(c2nc(N)nc3cc(C(=O)NC(Cc4cccc(Oc5nsnc5Cl)c4)C(=O)N(C)C)ccc23)CC1 (stereo not shown) [Example 168, 2-Amino-N-[1-{3-[(4-chloro-1,2,5-thiadiazol-3-yl)oxy]benzyl}-2-(dimethylamino)-2-oxoethyl]-4-(4-methylpiperazin-1-yl)quinazoline-7-carboxamide] | 9.6
20 | CN1CCN(c2cc(-c3ccc4c(c3)CN(C(=O)CC(C)(C)C#N)CC4)nc(N)n2)CC1 [Example 121, 4-[7-[2-Amino-6-(4-methylpiperazin-1-yl)pyrimidin-4-yl]-3,4-dihydroisoquinolin-2(1H)-yl]-2,2-dimethyl-4-oxobutanenitrile] | 39
21 | CN1CCN(c2cc(-c3ccc4c(c3)CN(c3ccc(C#N)cc3)CC4)nc(N)n2)CC1 [Example 14, 4-{7-[2-Amino-6-(4-methylpiperazin-1-yl)pyrimidin-4-yl]-3,4-dihydroisoquinolin-2(1H)-yl}benzonitrile] | 23.1
22 | CN1CCN(c2nc(N)nc3cc(C(=O)NC(Cc4cccc(Oc5cc(C#N)ccc5C(F)(F)F)c4)C(=O)N(C)C)ccc23)CC1 (stereo not shown) [Example 171, 2-Amino-N-[1-{3-[5-cyano-2-(trifluoromethyl)phenoxy]benzyl}-2-(dimethylamino)-2-oxoethyl]-4-(4-methylpiperazin-1-yl)quinazoline-7-carboxamide] | 13
23 | CN1CCN(c2cc(-c3ccc4c(c3)CN(C(=O)Nc3ccc(Cl)cc3)CC4)nc(N)n2)CC1 [Example 8, 7-[2-Amino-6-(4-methylpiperazin-1-yl)pyrimidin-4-yl]-N-(4-chlorophenyl)-3,4-dihydroisoquinoline-2(1H)-carboxamide] | 13.2
24 | COC(=O)c1cccc(COc2cccc3c2CCN(C(=O)c2ccc4c(N5CCN(C)CC5)nc(N)nc4c2)C3)c1 [Example 209, Methyl 3-((2-(2-amino-4-(4-methylpiperazin-1-yl)quinazoline-7-carbonyl)-1,2,3,4-tetrahydroisoquinolin-5-yloxy)methyl)benzoate] | 36
25 | CN1CCN(c2cc(-c3ccc4c(c3)CN(C(=O)NC3CCc5ccccc53)CC4)nc(N)n2)CC1 (stereo not shown) [Example 82, 7-[2-Amino-6-(4-methylpiperazin-1-yl)pyrimidin-4-yl]-N-(2,3-dihydro-1H-inden-1-yl)-3,4-dihydroisoquinoline-2(1H)-carboxamide] | 67
26 | CN1CCN(c2cc(-c3ccc4c(c3)CN(C(=O)CC3CCC3)CC4)nc(N)n2)CC1 [Example 109, 4-[2-(Cyclobutylacetyl)-1,2,3,4-tetrahydroisoquinolin-7-yl]-6-(4-methylpiperazin-1-yl)pyrimidin-2-amine] | 9.6
27 | CN1CCN(c2cc(-c3ccc4c(c3)CN(C(=O)NC3CCC(F)(F)CC3)CC4)nc(N)n2)CC1 [Example 63, 7-[2-Amino-6-(4-methylpiperazin-1-yl)pyrimidin-4-yl]-N-(4,4-difluorocyclohexyl)-3,4-dihydroisoquinoline-2(1H)-carboxamide] | 37
28 | Cc1cccc(Oc2cccc(CNC(=O)c3ccc4c(N5CCN(C)CC5)nc(N)nc4c3)c2)c1C#N [Example 189, 2-Amino-N-[3-(2-cyano-3-methylphenoxy)benzyl]-4-(4-methylpiperazin-1-yl)quinazoline-7-carboxamide] | 6.6
29 | COc1ccc([C@@H](C)NC(=O)c2ccc3c(N4CCN(C)CC4)nc(N)nc3c2)cc1 [Example 30, 2-Amino-N-[(1R)-1-(4-methoxyphenyl)ethyl]-4-(4-methylpiperazin-1-yl)quinazoline-7-carboxamide] | 492
30 | CC(C)[C@H](C)NC(=O)N1CCc2ccc(-c3cc(N4CCN(C)CC4)nc(N)n3)cc2C1 [Example 97, 7-[2-Amino-6-(4-methylpiperazin-1-yl)pyrimidin-4-yl]-N-[(1S)-1,2-dimethylpropyl]-3,4-dihydroisoquinoline-2(1H)-carboxamide] | 73
31 | CN1CCN(c2nc(N)nc3cc(C(=O)NC(Cc4ccc(-c5cccc(F)c5F)nc4)C(=O)N(C)C)ccc23)CC1 (stereo not shown) [Example 163, 2-Amino-N-[1-{[6-(2,3-difluorophenyl)pyridin-3-yl]methyl}-2-(dimethylamino)-2-oxoethyl]-4-(4-methylpiperazin-1-yl)quinazoline-7-carboxamide] | 66
